The source of these data is US11096909B2, “Compounds for use in the treatment of cancer” (University of Oulu, priority 2016, dated 2021).

Series [1] addresses T1, ARTD3/PARP3 (Homo sapiens, UniProt Q9Y6F1).
T1 construct: made in house; host or cells: E. coli
T1 sequence (Q9Y6F1 1-533): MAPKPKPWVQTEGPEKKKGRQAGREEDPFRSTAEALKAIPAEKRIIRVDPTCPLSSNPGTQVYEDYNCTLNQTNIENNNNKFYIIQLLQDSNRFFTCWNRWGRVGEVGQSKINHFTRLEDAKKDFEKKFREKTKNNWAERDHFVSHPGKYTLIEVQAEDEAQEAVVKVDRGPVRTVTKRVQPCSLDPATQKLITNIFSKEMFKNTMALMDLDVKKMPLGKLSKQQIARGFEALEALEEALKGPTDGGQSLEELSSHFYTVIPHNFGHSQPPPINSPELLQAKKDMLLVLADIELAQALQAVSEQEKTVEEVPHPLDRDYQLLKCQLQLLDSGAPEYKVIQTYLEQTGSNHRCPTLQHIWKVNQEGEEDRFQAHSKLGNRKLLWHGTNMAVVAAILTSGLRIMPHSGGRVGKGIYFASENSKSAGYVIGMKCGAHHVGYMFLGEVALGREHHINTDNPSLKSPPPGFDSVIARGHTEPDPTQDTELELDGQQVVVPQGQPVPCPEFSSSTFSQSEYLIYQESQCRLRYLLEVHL
The experiment in a line: Activity-based fluorescent assay, ARTD3. The class given is biochemical.

Series [2] concerns the target T2, ARTD5/PARP5a (Homo sapiens, UniProt O95271).
T2 construct: made in house; host or cells: E. coli
T2 sequence (O95271 1-1327): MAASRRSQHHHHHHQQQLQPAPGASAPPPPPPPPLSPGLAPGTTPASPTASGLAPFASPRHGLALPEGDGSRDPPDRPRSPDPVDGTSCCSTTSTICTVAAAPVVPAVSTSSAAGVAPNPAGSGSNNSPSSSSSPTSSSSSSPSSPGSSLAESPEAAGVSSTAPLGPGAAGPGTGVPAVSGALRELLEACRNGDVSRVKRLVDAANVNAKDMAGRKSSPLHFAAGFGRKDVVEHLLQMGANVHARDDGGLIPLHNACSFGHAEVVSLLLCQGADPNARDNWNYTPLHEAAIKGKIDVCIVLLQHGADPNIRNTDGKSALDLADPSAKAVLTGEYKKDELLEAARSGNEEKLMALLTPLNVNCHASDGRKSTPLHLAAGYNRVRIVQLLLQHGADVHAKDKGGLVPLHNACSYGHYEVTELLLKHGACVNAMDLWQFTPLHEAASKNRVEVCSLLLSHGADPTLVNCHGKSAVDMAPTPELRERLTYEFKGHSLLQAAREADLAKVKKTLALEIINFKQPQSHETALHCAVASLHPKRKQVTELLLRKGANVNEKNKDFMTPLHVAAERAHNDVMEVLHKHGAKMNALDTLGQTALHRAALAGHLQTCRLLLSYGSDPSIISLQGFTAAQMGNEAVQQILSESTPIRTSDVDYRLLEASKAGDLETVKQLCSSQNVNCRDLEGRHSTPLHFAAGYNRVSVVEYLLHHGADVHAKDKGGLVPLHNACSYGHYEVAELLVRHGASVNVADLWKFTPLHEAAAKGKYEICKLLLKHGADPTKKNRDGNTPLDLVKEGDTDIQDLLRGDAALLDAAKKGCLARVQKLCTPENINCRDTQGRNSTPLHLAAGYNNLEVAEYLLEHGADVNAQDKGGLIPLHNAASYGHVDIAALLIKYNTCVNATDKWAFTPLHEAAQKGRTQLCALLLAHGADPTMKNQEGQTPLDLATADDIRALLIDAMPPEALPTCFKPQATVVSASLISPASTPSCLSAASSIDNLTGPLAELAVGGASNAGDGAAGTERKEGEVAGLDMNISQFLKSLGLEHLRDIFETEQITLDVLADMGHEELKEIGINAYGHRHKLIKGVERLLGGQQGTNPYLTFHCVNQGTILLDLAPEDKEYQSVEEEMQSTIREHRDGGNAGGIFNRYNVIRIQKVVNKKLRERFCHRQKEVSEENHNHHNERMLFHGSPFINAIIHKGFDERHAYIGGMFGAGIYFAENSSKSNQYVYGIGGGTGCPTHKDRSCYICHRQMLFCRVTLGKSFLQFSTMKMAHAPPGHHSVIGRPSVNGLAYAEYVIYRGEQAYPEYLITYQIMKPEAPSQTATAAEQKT
The experiment in a line: Activity-based fluorescent assay, ARTD5. The class given is biochemical.

In series [3] the target is T3, ARTD6/PARP5b (Homo sapiens, UniProt Q9H2K2).
T3 construct: made in house; host or cells: E. coli
T3 sequence (Q9H2K2 1-1166): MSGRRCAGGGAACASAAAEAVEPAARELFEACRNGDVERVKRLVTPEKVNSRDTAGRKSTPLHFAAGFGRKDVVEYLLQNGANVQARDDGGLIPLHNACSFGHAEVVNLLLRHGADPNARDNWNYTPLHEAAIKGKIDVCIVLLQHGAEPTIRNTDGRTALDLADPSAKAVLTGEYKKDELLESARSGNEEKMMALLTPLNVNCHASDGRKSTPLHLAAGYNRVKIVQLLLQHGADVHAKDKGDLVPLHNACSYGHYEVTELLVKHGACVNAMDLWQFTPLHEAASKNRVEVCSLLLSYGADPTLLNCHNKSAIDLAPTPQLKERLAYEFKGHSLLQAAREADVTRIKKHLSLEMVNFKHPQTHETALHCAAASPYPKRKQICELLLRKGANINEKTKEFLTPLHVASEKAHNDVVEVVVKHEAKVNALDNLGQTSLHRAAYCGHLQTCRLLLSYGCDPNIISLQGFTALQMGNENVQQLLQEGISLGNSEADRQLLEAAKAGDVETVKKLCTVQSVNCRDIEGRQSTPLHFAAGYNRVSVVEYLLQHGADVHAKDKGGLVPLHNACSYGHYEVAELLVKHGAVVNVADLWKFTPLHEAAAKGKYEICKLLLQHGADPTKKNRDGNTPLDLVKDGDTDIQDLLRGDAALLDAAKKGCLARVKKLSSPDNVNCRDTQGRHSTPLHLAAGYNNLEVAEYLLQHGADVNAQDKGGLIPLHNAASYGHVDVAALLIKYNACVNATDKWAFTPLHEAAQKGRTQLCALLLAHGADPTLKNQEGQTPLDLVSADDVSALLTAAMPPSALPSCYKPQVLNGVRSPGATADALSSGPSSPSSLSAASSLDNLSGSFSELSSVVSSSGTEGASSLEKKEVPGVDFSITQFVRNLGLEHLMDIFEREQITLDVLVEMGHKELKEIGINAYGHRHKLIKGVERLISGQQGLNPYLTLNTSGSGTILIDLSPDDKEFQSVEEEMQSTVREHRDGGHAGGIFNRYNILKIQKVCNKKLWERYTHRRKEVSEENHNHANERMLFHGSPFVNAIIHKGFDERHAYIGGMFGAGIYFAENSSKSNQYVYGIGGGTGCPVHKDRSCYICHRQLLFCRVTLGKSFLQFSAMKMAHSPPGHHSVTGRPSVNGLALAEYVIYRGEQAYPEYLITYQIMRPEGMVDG
The series is described as follows: Activity-based fluorescent assay, ARTD6. It is filed as biochemical.

For series [4], the target named is T1, ARTD3/PARP3. The experiment in a line: Differential scanning fluorimetry, ARTD3. The class given is binding. The settings on record: read-out: ΔTm (DSF), ° C. ± STDEV. Background: In DSF a fluorescence change marks the thermal transition of the protein.
Series [5] has as its system HeLa cells overexpressing ARTD10. The experiment in a line: Colony formation assay. It is filed as cell-based. The settings on record: control cells (ARTD10 not induced), 10 μM compound.
Procedure: The different compounds were added as indicated with a final concentration of 10 μM. These were replenished every 48 h. (b) Quantification of the colony formation results. The data represent mean values of three independent experiments performed in duplicates with standard deviations.
The cells were grown in DMEM culture media with 10% FCS, and the plates were incubated at 37° C. with 5% CO2. After 24 h of seeding, over expression of ARTD10 was induced by adding 500 ng/ml doxycycline and the media were also supplemented with the tested compounds at 10 μM concentrations. The cells were allowed to proliferate for the next 10 days, after which they were stained with methylene blue to count the number of surviving colonies. The compounds and doxycycline were replenished every 48 h while fresh media (DMEM supplemented with 10% FCS) was added every four days.
Series [6] has as its system HeLa cells. The experiment in a line: Cytotoxicity in HeLa cells. The following applies: 10 μM. The class given is cell-based.
The test system of series [7] is HeLa cells treated with hydroxyurea. The experiment in a line: DNA damage experiments with hydroxyurea. The following applies: 5 μM OUL35 combined with hydroxyurea, cell confluence at 72 hours. The class given is cell-based. On the procedure:
FIG. 4. […] Cell confluence is indicated at 72 hours (n=5, data present mean±SEM, n.s=not significant, *P<0.05, **P<0.01).
HeLa cells (ATCC) were grown in Dulbecco's modified Eagle's medium (DMEM, Sigma) supplemented with 10% fetal bovine serum (Lonza), 1× penicillin and streptomycin (Sigma) at 37° C. in a 5% CO2 atmosphere. 4000 cells/well were plated on 96-well plates. […] The DMSO content was kept below 0.05% in all experiments. The 96-well plates were placed in an IncuCyte ZOOM live cell imaging system (Essen BioScience) to follow the cell growth. The plates were scanned in the IncuCyte at 2 hour intervals for 72 hours. Data were analyzed by the IncuCyte Zoom software (Essen BioScience). The results are representative of three (cell growth curves) or five independent experiments (72 h end points) each done in six replicates. P values less than 0.05 were considered as significant (n.s=not statistically significant, *P<0.05, **P<0.01).

For series [8], the target named is T4, ARTD7/PARP15 (Homo sapiens, UniProt Q460N3).
T4 sequence (Q460N3 1-678): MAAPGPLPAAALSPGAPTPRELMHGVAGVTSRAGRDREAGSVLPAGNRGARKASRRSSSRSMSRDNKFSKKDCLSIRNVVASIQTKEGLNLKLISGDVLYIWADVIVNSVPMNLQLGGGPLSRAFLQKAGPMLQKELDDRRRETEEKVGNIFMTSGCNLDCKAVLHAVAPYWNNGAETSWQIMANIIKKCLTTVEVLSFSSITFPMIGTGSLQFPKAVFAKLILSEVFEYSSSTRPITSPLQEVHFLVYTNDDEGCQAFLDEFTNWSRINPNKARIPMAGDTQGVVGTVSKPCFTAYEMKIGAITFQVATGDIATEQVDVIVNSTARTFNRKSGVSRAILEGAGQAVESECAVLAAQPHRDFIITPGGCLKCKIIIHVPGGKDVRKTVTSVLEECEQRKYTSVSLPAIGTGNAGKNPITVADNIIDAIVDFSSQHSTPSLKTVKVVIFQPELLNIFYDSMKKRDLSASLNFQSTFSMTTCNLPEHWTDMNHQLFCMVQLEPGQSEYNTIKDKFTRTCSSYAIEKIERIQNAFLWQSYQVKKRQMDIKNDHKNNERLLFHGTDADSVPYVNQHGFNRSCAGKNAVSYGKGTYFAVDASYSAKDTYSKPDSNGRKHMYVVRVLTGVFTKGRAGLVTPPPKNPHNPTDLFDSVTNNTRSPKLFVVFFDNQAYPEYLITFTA
The experiment in a line: biochemical.

Series [9] addresses ARTD12/PARP12 (Homo sapiens, UniProt Q9H0J9). The experiment in a line: biochemical.
Series [10] deals with T5, ARTD4/PARP4 (Homo sapiens, UniProt Q9UKK3). The series is described as follows: Activity-based fluorescent assay, ARTD4. The class given is biochemical. Set-up: made in house; host or cells: E. coli.
Series [11] concerns the target T5, ARTD4/PARP4. The experiment in a line: Differential scanning fluorimetry, ARTD4. The settings on record: read-out: ΔTm (DSF), ° C. ± STDEV.
Series [12] addresses T6, ARTD15/PARP16 (Homo sapiens, UniProt Q8N5Y8).
T6 sequence (Q8N5Y8 94-279 limits assumed): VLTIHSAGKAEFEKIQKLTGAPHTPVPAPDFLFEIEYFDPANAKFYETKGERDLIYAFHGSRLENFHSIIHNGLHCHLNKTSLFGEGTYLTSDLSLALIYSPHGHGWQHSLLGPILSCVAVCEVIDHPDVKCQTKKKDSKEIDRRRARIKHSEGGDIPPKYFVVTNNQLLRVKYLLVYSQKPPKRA
The series is described as follows: Differential scanning fluorimetry, ARTD15.

T5 sequence (Q9UKK3 whole entry): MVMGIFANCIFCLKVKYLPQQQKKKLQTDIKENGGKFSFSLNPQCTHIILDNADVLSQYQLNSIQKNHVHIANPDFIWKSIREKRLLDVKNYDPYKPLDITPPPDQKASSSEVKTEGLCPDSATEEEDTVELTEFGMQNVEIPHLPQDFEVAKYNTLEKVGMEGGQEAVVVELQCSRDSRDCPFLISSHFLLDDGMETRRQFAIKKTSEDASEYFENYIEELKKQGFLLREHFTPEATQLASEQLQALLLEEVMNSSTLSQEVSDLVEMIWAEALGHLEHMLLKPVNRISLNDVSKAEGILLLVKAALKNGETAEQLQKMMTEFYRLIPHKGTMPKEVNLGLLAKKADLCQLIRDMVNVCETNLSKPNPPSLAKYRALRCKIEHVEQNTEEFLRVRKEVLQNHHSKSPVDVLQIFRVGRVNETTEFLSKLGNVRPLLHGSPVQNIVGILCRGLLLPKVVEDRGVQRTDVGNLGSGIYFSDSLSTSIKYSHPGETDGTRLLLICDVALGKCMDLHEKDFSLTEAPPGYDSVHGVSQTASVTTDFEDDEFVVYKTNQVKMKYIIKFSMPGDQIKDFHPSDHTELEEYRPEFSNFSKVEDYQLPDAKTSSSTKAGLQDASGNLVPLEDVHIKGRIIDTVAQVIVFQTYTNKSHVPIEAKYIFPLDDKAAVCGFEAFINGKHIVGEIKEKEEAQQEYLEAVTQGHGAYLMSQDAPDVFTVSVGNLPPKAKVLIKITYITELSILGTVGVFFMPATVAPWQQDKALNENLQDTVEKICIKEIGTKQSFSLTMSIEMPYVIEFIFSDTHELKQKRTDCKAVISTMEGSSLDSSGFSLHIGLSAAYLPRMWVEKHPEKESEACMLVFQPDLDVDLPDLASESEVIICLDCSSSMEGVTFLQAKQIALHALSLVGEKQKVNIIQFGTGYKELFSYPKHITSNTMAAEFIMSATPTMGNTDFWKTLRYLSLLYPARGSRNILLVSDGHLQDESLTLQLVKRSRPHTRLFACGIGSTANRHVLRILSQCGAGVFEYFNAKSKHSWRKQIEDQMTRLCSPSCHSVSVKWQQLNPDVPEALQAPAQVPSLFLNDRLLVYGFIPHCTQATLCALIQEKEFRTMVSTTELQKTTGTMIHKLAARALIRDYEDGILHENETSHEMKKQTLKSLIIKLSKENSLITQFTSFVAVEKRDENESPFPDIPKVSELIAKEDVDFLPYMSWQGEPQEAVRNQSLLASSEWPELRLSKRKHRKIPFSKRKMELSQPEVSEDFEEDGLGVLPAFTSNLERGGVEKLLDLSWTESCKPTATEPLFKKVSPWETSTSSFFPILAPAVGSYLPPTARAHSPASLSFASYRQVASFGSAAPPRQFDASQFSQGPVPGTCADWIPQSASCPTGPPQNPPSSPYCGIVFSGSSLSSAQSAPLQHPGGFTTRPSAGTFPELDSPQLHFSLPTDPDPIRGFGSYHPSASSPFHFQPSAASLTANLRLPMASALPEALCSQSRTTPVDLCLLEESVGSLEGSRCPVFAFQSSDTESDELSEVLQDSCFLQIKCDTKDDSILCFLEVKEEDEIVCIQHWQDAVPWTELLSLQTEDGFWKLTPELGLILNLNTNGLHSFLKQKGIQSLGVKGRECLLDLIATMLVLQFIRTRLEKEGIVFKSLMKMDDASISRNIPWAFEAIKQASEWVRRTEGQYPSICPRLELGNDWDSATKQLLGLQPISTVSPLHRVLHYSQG
ARTD12/PARP12, sequence (Q9H0J9 whole entry): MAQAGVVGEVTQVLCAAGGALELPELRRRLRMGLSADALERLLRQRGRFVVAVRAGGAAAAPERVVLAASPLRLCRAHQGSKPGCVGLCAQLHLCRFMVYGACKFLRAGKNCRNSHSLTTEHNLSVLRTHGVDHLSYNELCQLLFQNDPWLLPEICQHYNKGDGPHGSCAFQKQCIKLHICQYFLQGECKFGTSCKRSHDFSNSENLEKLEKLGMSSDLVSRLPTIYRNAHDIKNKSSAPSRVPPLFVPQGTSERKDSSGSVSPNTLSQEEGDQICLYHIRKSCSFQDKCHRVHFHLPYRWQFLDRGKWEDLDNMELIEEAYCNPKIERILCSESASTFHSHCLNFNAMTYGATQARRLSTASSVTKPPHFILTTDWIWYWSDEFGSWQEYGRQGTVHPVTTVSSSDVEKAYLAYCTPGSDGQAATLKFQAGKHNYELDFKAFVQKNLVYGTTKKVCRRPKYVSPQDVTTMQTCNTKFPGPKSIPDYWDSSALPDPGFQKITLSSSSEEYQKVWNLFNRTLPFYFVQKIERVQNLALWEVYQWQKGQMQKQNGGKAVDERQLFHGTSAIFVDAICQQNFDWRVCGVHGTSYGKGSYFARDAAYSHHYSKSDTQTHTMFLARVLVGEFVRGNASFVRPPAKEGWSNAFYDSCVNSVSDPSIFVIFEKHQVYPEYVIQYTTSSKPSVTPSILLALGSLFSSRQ

Consider `NC(=O)c1ccc(Oc2ccc(C(N)=O)cc2)cc1` [OUL35, 4,4′-oxydibenzamide], for which the IC50 (as a rule, the concentration that inhibits the measured activity by half) in [1] is greater than 100 µM; in [2], greater than 100 µM; in [3], greater than 100 µM; in [8], greater than 20 µM; in series [9], greater than 100 µM; in series [10], 22.6 µM. In addition, the ΔTm (usually the shift of the melting midpoint relative to a reference) at 100 µM was determined as 0.09 ± 0.32 °C in series [4]; 0.84 ± 0.14 °C in [11]; 2.45 ± 0.11 °C in [12] (read-out: ΔTm (DSF), ° C. ± STDEV). For the same compound, the “toxicity in the control cells” value in series [5] was “not toxic to control cells”. Further, the cytotoxic effect entry in series [6] is “no cytotoxic effect”. The “sensitivity to hydroxyurea-induced DNA damage” value in series [7] is recorded as “more sensitive to DNA damage in the presence of OUL35”. In addition, the “pIC50 ± SEM” value in series [10] is given as 4.65 ± 0.17. For the same compound, the “stabilization of catalytic domain (DSF)” value in [12] (100 μM OUL35) was “stabilized the catalytic domains”.
